From PMC9855884, “Glycosylated Lipopeptides—Synthesis and Evaluation of Antimicrobial Activity and Cytotoxicity” (Biomolecules, 2023)
≈ marks a conversion by molar mass, not a printed value. Where a SMILES comes first, the peptide text is derived from it. The star is where a group is joined. βGlcNAc = CC(=O)N[C@@H]1[C@@H](O)[C@H](O)[C@@H](CO)O[C@H]1*; Palmitoyl = CCCCCCCCCCCCCCCC(=O)*; Myristoyl = CCCCCCCCCCCCCC(=O)*

Experiments:
[1] = Determination of peptide hydrophobicity with RP-HPLC (adjusted retention time); assay type: physicochemical; conditions: RP-HPLC as measure of hydrophobicity; Waters X-Bridge Shield RP-18 3.0 × 100 mm, 3.5 μm; linear 20–80% acetonitrile in water over 30 min, 0.1% TFA; 0.5 mL/min; 25.0 °C; peptide 1 g/L in water (0.1% TFA); UV 214 nm; triplicate
Procedure: To determine peptide hydrophobicity, a Waters Alliance e2695 system with a Waters 2998 PDA Detector was used. All analyses were carried out on a Waters X-Bridge Shield RP-18 column (3.0 × 100 mm, 3.5 μm particle size, 130 Å pore size). The peptides were dissolved in water (0.1% TFA, v/v) up to a concentration of 1 g/L. UV detection at 214 nm was used, and samples (10 μL) were eluted with a linear 20–80% acetonitrile gradient in deionized water over 30 min at 25.0 ± 0.1 °C. The mobile phase flow rate was 0.5 mL/min. Both eluents contained 0.1% (v/v) of TFA. Each peptide sample was analyzed in triplicate. Maximum standard deviation and coefficient of variation were 0.046 and 0.23%, respectively.
After synthesis and purification, all the products were analyzed with MS and HPLC to confirm purity and identity of the compounds. […] The chromatographic analyses were performed with RP-HPLC; retention time refers to hydrophobicity of the lipopeptide.

E. faecium ATCC 700221 = assay type: cell-based, Enterococcus faecium; conditions: ATCC 700221, 18 h
Procedure: (§1) The Acinetobacter baumannii ATCC BAA-1605, Enterococcus faecium ATCC 700221, Klebsiella aerogenes ATCC 13048, Klebsiella pneumoniae ATCC 700603, Pseudomonas aeruginosa ATCC 9027, Staphylococcus aureus ATCC 33591, Candida glabrata ATCC 15126, strains were acquired from the American Type Culture Collection (ATCC). All the strains were stored at −80 °C in Roti-Store cryo vials and were transferred into fresh Mueller–Hinton broth (MHB, Becton Dickinson, Warsaw, Poland) for bacteria or RPMI-1640 (Sigma-Aldrich, Steinheim, Germany) for fungi before the tests and incubated for 24 h at 37 °C. Then, the cultures were seeded on the Mueller–Hinton agar (BioMaxima, Lublin, Poland) or Sabouraud dextrose agar (SDA, BioMaxima, Lublin, Poland) plates, respectively, and incubated as just mentioned. These agar cultures were used for further microbiological assays. Cell densities for all assays were adjusted spectrophotometrically (Multiskan GO Microplate Spectrophotometer, Thermo Fisher Scientific, Vantaa, Finland) at 600 and 530 nm for bacteria and fungi, respectively.
(§2) The MICs were determined using a broth microdilution method according to the Clinical and Laboratory Standard Institute guidelines. For this purpose, initial inoculums of bacteria (5 × 10^5 CFU/mL) in MHB and yeasts (2 × 10^3 CFU/mL) in RPMI-1640 with 2% D-glucose were exposed to the ranging concentration of lipopeptides (1–512 μg/mL) and incubated at 37 °C for 18 h and 24 h, respectively. The experiments were conducted on 96-well microtiter polystyrene plates (Kartell, Italy). The growth was assessed visually after incubation and the MIC was assumed as the lowest peptide concentration at which a noticeable growth of microorganisms was inhibited. All experiments were conducted in triplicate.

S. aureus ATCC 33591 = assay type: cell-based, Staphylococcus aureus; conditions: ATCC 33591, 18 h
Procedure: as §1, §2

[2] = test system: K. pneumoniae ATCC 700603; assay type: cell-based, Klebsiella pneumoniae; conditions: ATCC 700603, 18 h
Procedure: as §1, §2

[3] = test system: A. baumannii ATCC BAA 1605; assay type: cell-based, Acinetobacter baumannii; conditions: ATCC BAA 1605, 18 h
Procedure: as §1, §2

P. aeruginosa ATCC 9027 = assay type: cell-based, Pseudomonas aeruginosa; conditions: ATCC 9027, 18 h
Procedure: as §1, §2

C. glabrata ATCC 15126 = assay type: cell-based, Candida glabrata; conditions: ATCC 15126, 24 h
Procedure: as §1, §2

| Structure (SMILES) | Adjusted Retention Time [1] | MIC (E. faecium ATCC 700221) | MIC (S. aureus ATCC 33591) | MIC [2] | MIC [3] | MIC (P. aeruginosa ATCC 9027) | MIC (C. glabrata ATCC 15126) |
| --- | --- | --- | --- | --- | --- | --- | --- |
| CCCCCCCCCCCCCCCC(=O)N[C@@H](CO)C(=O)N[C@@H](CCCNC(=N)N)C(=O)N[C@@H](CCCNC(=N)N)C(N)=O [Peptide 4, C16-SRR-NH2] (Palmitoyl-Ser-Arg-Arg-NH2) | 20.55 min | 8 mg/L (≈ 12.2 µM) | 8 mg/L (≈ 12.2 µM) | 512 mg/L (≈ 782 µM) | 32 mg/L (≈ 48.9 µM) | 16 mg/L (≈ 24.4 µM) | 4 mg/L (≈ 6.11 µM) |
| CCCCCCCCCCCCCCCC(=O)N[C@@H](CCCNC(=N)N)C(=O)N[C@@H](CCCNC(=N)N)C(=O)N[C@@H](CO)C(N)=O [Peptide 6, C16-RRS-NH2] (Palmitoyl-Arg-Arg-Ser-NH2) | 19.89 min | 8 mg/L (≈ 12.2 µM) | 8 mg/L (≈ 12.2 µM) | 32 mg/L (≈ 48.9 µM) | 32 mg/L (≈ 48.9 µM) | 16 mg/L (≈ 24.4 µM) | 8 mg/L (≈ 12.2 µM) |
| CCCCCCCCCCCCCC(=O)N[C@@H](CCCNC(=N)N)C(=O)N[C@@H](CO)C(=O)N[C@@H](CCCNC(=N)N)C(N)=O [Peptide 2, C14-RSR-NH2] (Myristoyl-Arg-Ser-Arg-NH2) | 15.96 min | 8 mg/L (≈ 12.8 µM) | 8 mg/L (≈ 12.8 µM) | 512 mg/L (≈ 817 µM) | 64 mg/L (≈ 102 µM) | 64 mg/L (≈ 102 µM) | 32 mg/L (≈ 51 µM) |

Next, values leading:

| Adjusted Retention Time [1] | MIC (E. faecium ATCC 700221) | MIC (S. aureus ATCC 33591) | MIC [2] | MIC [3] | MIC (P. aeruginosa ATCC 9027) | MIC (C. glabrata ATCC 15126) | Structure (SMILES) |
| --- | --- | --- | --- | --- | --- | --- | --- |
| 18.26 min | 16 mg/L (≈ 18.6 µM) | 16 mg/L (≈ 18.6 µM) | 256 mg/L (≈ 298 µM) | 32 mg/L (≈ 37.3 µM) | 32 mg/L (≈ 37.3 µM) | 32 mg/L (≈ 37.3 µM) | CCCCCCCCCCCCCCCC(=O)N[C@@H](CO[C@@H]1O[C@H](CO)[C@@H](O)[C@H](O)[C@H]1NC(C)=O)C(=O)N[C@@H](CCCNC(=N)N)C(=O)N[C@@H](CCCNC(=N)N)C(N)=O [Peptide 13, C16-S(GlcNAc)RR-NH2] (Palmitoyl-Ser(βGlcNAc)-Arg-Arg-NH2) |
| 14.82 min | 32 mg/L (≈ 38.6 µM) | 64 mg/L (≈ 77.1 µM) | >512 mg/L | 64 mg/L (≈ 77.1 µM) | 128 mg/L (≈ 154 µM) | 128 mg/L (≈ 154 µM) | CCCCCCCCCCCCCC(=O)N[C@@H](CCCNC(=N)N)C(=O)N[C@@H](CO[C@@H]1O[C@H](CO)[C@@H](O)[C@H](O)[C@H]1NC(C)=O)C(=O)N[C@@H](CCCNC(=N)N)C(N)=O [Peptide 11, C14-RS(GlcNAc)R-NH2] (Myristoyl-Arg-Ser(βGlcNAc)-Arg-NH2) |
| 15.01 min | 16 mg/L (≈ 19.3 µM) | 32 mg/L (≈ 38.6 µM) | >512 mg/L | 64 mg/L (≈ 77.1 µM) | 256 mg/L (≈ 308 µM) | 128 mg/L (≈ 154 µM) | CCCCCCCCCCCCCC(=O)N[C@@H](CCCNC(=N)N)C(=O)N[C@@H](CCCNC(=N)N)C(=O)N[C@@H](CO[C@@H]1O[C@H](CO)[C@@H](O)[C@H](O)[C@H]1NC(C)=O)C(N)=O [Peptide 12, C14-RRS(GlcNAc)-NH2] (Myristoyl-Arg-Arg-Ser(βGlcNAc)-NH2) |
